Measured values taken from patent publication US10434101B2, “Heterocyclic compounds and uses thereof” (Celgene CAR LLC, priority 2010, dated 2019).
Read-outs that look alike come from different tables or passages of the source.

Experiments:
[1] = tested on: H1975 cells (EGFR L858R/T790M); assay: Cell proliferation (CellTiter Glo, 72 hr) in H1975 cells; type: cell-based, human; settings: Homo sapiens, read-out: H1975 GI50
Method: (§1) A431 human epidermoid carcinoma, H1975 human NSCLC and HCC827 human NSCLC adenocarcinoma cells were obtained from the American Type Culture Center (Manassas, Va.). A431 cells were grown in DMEM (Invitrogen, Carlsbad, Calif.) supplemented with 10% FBS (HyClone, South Logan, Utah) and 1% Penicillin-Streptomycin (P/S, Lonza, Walkersville, Md.).
(§2) Cells were plated in Growth Media supplemented with 5% FBS and 1% P/S at a density of 3,000 cells per well in 96 well tissue culture plates (Corning). […] Growth inhibition (GI50) values were determined by Graph Pad Prism.

[2] = target: EGFR double mutation L858R/T790M (H1975 cells) (Homo sapiens (Human), UniProt P00533, L858R/T790M); assay: Phospho-EGFR signaling (immunoblotting, 1 hr) in H1975 cells; type: cell-based; settings: signaling EC50 WT (A431) / H1975
Method: as §1
All primary antibodies were obtained from Cell Signaling (Danvers, Mass.) and used at 1:1000. Secondary antibodies were used at 1:10,000. Goat anti-mouse IgG IRDye 800CW antibody was obtained from LiCor Biosciences (Lincoln, Nebr.) and goat anti-rabbit IgG Alexa Fluor 680 was obtained from Invitrogen.
Cells were grown in 12-well plates (Corning, Coring, N.Y.) to 90% confluence and then incubated in low-serum (0.1% FBS) media for 16-18 hr. […] A431 cells were then stimulated with 50 ng/ml EGF (Peprotech, Rocky Hill, N.J.) for 15 min. After treatment, cell monolayers were washed with cold PBS (Invitrogen) and immediately lysed by scrapping into 60 uL cold Cell Extraction Buffer (Invitrogen) supplemented with Complete Protease inhibitors (Roche, Indianapolis, Ind.) and PhosphoSTOP (Roche) phosphatase inhibitors.
Phospho-protein signals were quantitated using Odyssey Infrared Imaging (Li-Cor Biosciences).
To assess phosphor-EGFR signaling, blots were probed with rabbit anti-Phospho-EGFR (Y1068) and mouse total anti-EGFR antibodies. Phospho-EGFR signal was normalized to total EGFR expression for each sample. […] Normalized data was fitted using a sigmoidal curve analysis program (Graph Pad Prism version 5) with variable Hill slope to determine the EC50 values.

[3] = tested on: HCC827 cells (EGFR delE746-A750); assay: Cell proliferation (CellTiter Glo, 72 hr) in HCC827 cells; type: cell-based, human; settings: Homo sapiens, read-out: HCC827 GI50
Method: as §1, §2

A431 cells (WT EGFR) = assay: Cell proliferation (CellTiter Glo, 72 hr) in A431 cells; type: cell-based; settings: Homo sapiens, read-out: WT EGFR GI50
Method: as §1, §2

Row | SMILES | GI50 ([1]; NCI-H1975, H1975 cells, 72 hr) [µM] | Ratio WT/mutant (H1975) [2] | GI50 ([3]; HCC827 cells, 72 hr) [µM] | GI50 (A431 cells (WT EGFR); A-431, A431 cells, 72 hr) [µM] | GI50 ([1]; NCI-H1975, 72 h) [µM] | GI50 ([3]; HCC827, 72 h) [µM] | GI50 (A431 cells (WT EGFR); A-431, 72 h) [µM]
1 | C=CC(=O)Nc1cccc(Nc2nc(Nc3ccc(N4CCCN(C(C)=O)CC4)cc3OC)ncc2C(F)(F)F)c1 [Compound I-7, N-(3-(2-(4-(4-acetyl-1,4-diazepan-1-yl)-2-methoxyphenylamino)-5-(trifluoromethyl)pyrimidin-4-ylamino)phenyl)acrylamide] | 0.1 to 0.5 | >5 | 0.1 to 0.5 | > 1 | – | – | –
2 | C=CC(=O)Nc1cccc(Oc2nc(Nc3ccc(N4CCN(C(=O)CO)CC4)cc3OC)ncc2C(F)(F)F)c1 [Compound I-11, N-(3-(2-(4-(4-(2-hydroxyacetyl)piperazin-1-yl)-2-methoxyphenylamino)-5-(trifluoromethyl)pyrimidin-4-yloxy)phenyl)acrylamide] | 0.1 to 0.5 | >15 | 0.01 to 0.1 | > 1 | – | – | –
3 | C=CC(=O)Nc1cccc(Oc2nc(Nc3ccc(N4CCN(C(=O)CO)CC4)cc3OC)ncc2Cl)c1 [Compound I-3, N-(3-(5-chloro-2-(4-(4-(2-hydroxyacetyl)piperazin-1-yl)-2-methoxyphenylamino)pyrimidin-4-yloxy)phenyl)acrylamide] | 0.1 to 0.5 | >5 | 0.01 to 0.1 | > 1 | – | – | –
4 | C=CC(=O)Nc1cccc(Oc2nc(Nc3ccc(N4CCN(C(=O)NC)CC4)cc3OC)ncc2C(F)(F)F)c1 [Compound I-21, 4-(4-(4-(3-acrylamidophenoxy)-5-(trifluoromethyl)pyrimidin-2-ylamino)-3-methoxyphenyl)-N-methylpiperazine-1-carboxamide] | 0.1 to 0.5 | >5 | 0.01 to 0.1 | 0.5 to 1 | – | – | –
5 | C=CC(=O)Nc1cccc(Nc2nc(Nc3ccc(N4CCCN(C(=O)OC(C)(C)C)CC4)cc3OC)ncc2C(F)(F)F)c1 [Compound I-44, tert-butyl 4-(4-(4-(3-acrylamidophenylamino)-5-(trifluoromethyl)pyrimidin-2-ylamino)-3-methoxyphenyl)-1,4-diazepane-1-carboxylate] | 0.5 to 1 | >5 | 0.5 to 1 | > 1 | – | – | –
6 | C=CC(=O)Nc1cccc(Oc2nc(Nc3ccc(N4CCOCC4)cc3OC)ncc2Cl)c1 [Compound I-5, N-(3-(5-chloro-2-(2-methoxy-4-morpholinophenylamino)pyrimidin-4-yloxy)phenyl)acrylamide] | 0.1 to 0.5 | >30 | 0.01 to 0.1 | > 1 | – | – | –
7 | C=CC(=O)Nc1cccc(Nc2nc(Nc3ccc(N4CCN(C(=O)CO)CC4)cc3OC)ncc2C(F)(F)F)c1 [Compound I-6, N-(3-(2-(4-(4-(2-hydroxyacetyl)piperazin-1-yl)-2-methoxyphenylamino)-5-(trifluoromethyl)pyrimidin-4-ylamino)phenyl)acrylamide] | 0.01 to 0.1 | >20 | 0.01 to 0.1 | 0.5 to 1 | – | – | –
8 | C=CC(=O)Nc1cccc(Nc2nc(Nc3ccc(N4CCN(C(C)=O)CC4)cc3OC)ncc2Br)c1 [Compound I-40, N-(3-(2-(4-(4-acetylpiperazin-1-yl)-2-methoxyphenylamino)-5-bromopyrimidin-4-ylamino)phenyl)acrylamide] | 0.1 to 0.5 | >1 | 0.01 to 0.1 | 0.5 to 1 | – | – | –
9 | C=CC(=O)Nc1cccc(Nc2nc(Nc3ccc(N4CCN(C(C)=O)[C@H](C(=O)OC)C4)cc3OC)ncc2C(F)(F)F)c1 [Compound I-48] | 0.01 to 0.1 | >50 | 0.01 to 0.1 | > 1 | – | – | –
10 | C=CC(=O)Nc1cccc(Oc2nc(Nc3ccc(N4CCOCC4)cc3OC)ncc2C(F)(F)F)c1 [Compound I-1, N-(3-(2-(2-methoxy-4-morpholinophenylamino)-5-(trifluoromethyl)pyrimidin-4-yloxy)phenyl)acrylamide] | 0.01 to 0.1 | >50 | 0.01 to 0.1 | > 1 | – | – | –
11 | C=CC(=O)Nc1cccc(Oc2nc(Nc3ccc(N4CCN(S(C)(=O)=O)CC4)cc3OC)ncc2C(F)(F)F)c1 [Compound I-22, N-(3-(2-(2-methoxy-4-(4-(methylsulfonyl)piperazin-1-yl)phenylamino)-5-(trifluoromethyl)pyrimidin-4-yloxy)phenyl)acrylamide] | 0.1 to 0.5 | >35 | 0.01 to 0.1 | > 1 | – | – | –
12 | C=CC(=O)Nc1cccc(Oc2nc(Nc3ccc(N4CCN(C(=O)OC)CC4)cc3OC)ncc2C(F)(F)F)c1 [Compound I-20, methyl 4-(4-(4-(3-acrylamidophenoxy)-5-(trifluoromethyl)pyrimidin-2-ylamino)-3-methoxyphenyl)piperazine-1-carboxylate] | – | – | – | – | 0.1 to 0.5 | 0.1 to 0.5 | > 1
13 | C=CC(=O)Nc1cccc(Nc2nc(Nc3ccc(N4CCN(C(=O)OC(C)(C)C)[C@H](C(=O)OC)C4)cc3OC)ncc2C(F)(F)F)c1 [Compound I-50, (S)-1-tert-butyl 2-methyl 4-(4-(4-(3-acrylamidophenylamino)-5-(trifluoromethyl)pyrimidin-2-ylamino)-3-methoxyphenyl)piperazine-1,2-dicarboxylate] | 0.1 to 0.5 | – | 0.01 to 0.1 | > 1 | – | – | –
14 | C=CC(=O)Nc1cccc(Nc2nc(Nc3ccc(N4CCS(=O)(=O)CC4)cc3OC)ncc2C(F)(F)F)c1 [Compound I-49, N-(3-(2-(2-methoxy-4,4-dioxo-4-thiomorpholinophenylamino)-5-(trifluoromethyl)pyrimidin-4-ylamino)phenyl)acrylamide] | 0.1 to 0.5 | >20 | 0.01 to 0.1 | > 1 | – | – | –
15 | C=CC(=O)Nc1cccc(Nc2nc(Nc3ccc(N4CCN(C(=O)OC)CC4)cc3OC)ncc2C(F)(F)F)c1 [Compound I-29, methyl 4-(4-(4-(3-acrylamidophenylamino)-5-(trifluoromethyl)pyrimidin-2-ylamino)-3-methoxyphenyl)piperazine-1-carboxylate] | 0.01 to 0.1 | – | 0.01 to 0.1 | > 1 | – | – | –
16 | C=CC(=O)Nc1cccc(Nc2nc(Nc3ccc(N4CCN(S(C)(=O)=O)CC4)cc3OC)ncc2Cl)c1 [Compound I-41, N-(3-(5-chloro-2-(2-methoxy-4-(4-(methylsulfonyl)piperazin-1-yl)phenylamino)pyrimidin-4-ylamino)phenyl)acrylamide] | 0.1 to 0.5 | >1 | 0.01 to 0.1 | > 1 | – | – | –
17 | C=CC(=O)Nc1cccc(Nc2nc(Nc3ccc(N4CCN(C(=O)CO)CC4)cc3OC)ncc2Cl)c1 [Compound I-12, N-(3-(5-chloro-2-(4-(4-(2-hydroxyacetyl)piperazin-1-yl)-2-methoxyphenylamino)pyrimidin-4-ylamino)phenyl)acrylamide] | 0.1 to 0.5 | >1 | 0.01 to 0.1 | 0.5 to 1 | – | – | –
18 | C=CC(=O)Nc1cccc(Nc2nc(Nc3ccc(N4CCN(C(=O)C(C)(C)C)CC4)cc3OC)ncc2C(F)(F)F)c1 [Compound I-34, N-(3-(2-(2-methoxy-4-(4-pivaloylpiperazin-1-yl)phenylamino)-5-(trifluoromethyl)pyrimidin-4-ylamino)phenyl)acrylamide] | 0.1 to 0.5 | >35 | 0.01 to 0.1 | > 1 | – | – | –
19 | C=CC(=O)Nc1cccc(Oc2nc(Nc3ccc(N4CCN(S(C)(=O)=O)CC4)cc3OC)ncc2Cl)c1 [Compound I-26, N-(3-(5-chloro-2-(2-methoxy-4-(4-(methylsulfonyl)piperazin-1-yl)phenylamino)pyrimidin-4-yloxy)phenyl)acrylamide] | > 1 | >40 | 0.01 to 0.1 | > 1 | – | – | –
20 | C=CC(=O)Nc1cccc(Nc2nc(Nc3ccc(N4CCCN(C(=O)C(F)(F)F)CC4)cc3OC)ncc2C(F)(F)F)c1 [Compound I-19, N-(3-(2-(2-methoxy-4-(4-(2,2,2-trifluoroacetyl)-1,4-diazepan-1-yl)phenylamino)-5-(trifluoromethyl)pyrimidin-4-ylamino)phenyl)acrylamide] | 0.1 to 0.5 | – | 0.1 to 0.5 | > 1 | – | – | –
21 | C=CC(=O)Nc1cccc(Oc2nc(Nc3ccc(N4CCOCC4)cc3OC(F)F)ncc2Cl)c1 [Compound I-36, N-(3-(5-chloro-2-(2-(difluoromethoxy)-4-morpholinophenylamino)pyrimidin-4-yloxy)phenyl)acrylamide] | 0.1 to 0.5 | – | 0.01 to 0.1 | > 1 | – | – | –
